From patent US7892764B2, “System for seizure suppression” (priority 2006, dated 2011)

How the values were obtained:
Assay type in all cases: cell-based
[1] = target: T1, ASIC current (Mus musculus, UniProt Q6NXK8); test: Acid-induced (pH 6.0) ASIC current in mouse cortical neurons, patch-clamp recording; conditions: read-out: IC50 (concentration at 50% inhibition) of ASIC current amplitude; pH drop 7.4 to 6.0, holding potential −60 mV
T1 sequence (Q6NXK8 1-526): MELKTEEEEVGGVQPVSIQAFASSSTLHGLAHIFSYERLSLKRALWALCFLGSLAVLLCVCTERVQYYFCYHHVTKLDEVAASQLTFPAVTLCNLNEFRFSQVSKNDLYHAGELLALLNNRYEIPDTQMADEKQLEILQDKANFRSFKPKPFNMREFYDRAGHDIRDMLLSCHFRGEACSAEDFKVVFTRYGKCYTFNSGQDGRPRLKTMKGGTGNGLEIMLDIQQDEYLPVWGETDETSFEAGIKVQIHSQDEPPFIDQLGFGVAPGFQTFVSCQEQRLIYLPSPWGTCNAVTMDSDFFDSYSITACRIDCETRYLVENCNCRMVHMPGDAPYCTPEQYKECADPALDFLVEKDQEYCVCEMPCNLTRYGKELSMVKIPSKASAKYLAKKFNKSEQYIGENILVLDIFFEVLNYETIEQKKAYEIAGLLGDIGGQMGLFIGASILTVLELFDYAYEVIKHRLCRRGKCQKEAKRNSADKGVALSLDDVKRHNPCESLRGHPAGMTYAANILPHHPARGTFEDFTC
Description: Mouse cortical neurons in culture were monitored electrophysiologically by patch-clamp recording of current at a holding potential of −60 mV. An ASIC current was induced at this holding potential by dropping the extracellular pH from physiological pH (pH 7.4) to pH 6.0, in the presence of different concentrations of benzamil (FIG. 11) or EIPA (FIG. 12). The current traces obtained are presented in the upper part of FIGS. 11 and 12. […] Therefore, amiloride derivatives inhibit ASIC channel activity and may be used for seizure suppression in subjects prone to seizures and/or having a seizure.

[2] = test system: ASIC current; test: Effect of antiepileptic agents on ASIC current activated by pH drop from 7.4 to 6.0 in isolated neurons
Description: Activation of ASICs may be involved in increased neuronal excitability and thus seizure generation. Inhibition of ASICs, on the other hand, is expected to be antiepileptic. To test this hypothesis further, we performed a study to examine the effect of currently available antiepileptic agents—particularly those agents for which the mechanism of action is not fully understood—on ASIC currents. We suspected that some of the current antiepileptic agents may, in fact, exert their antiepileptic effect partially through their inhibition of an ASIC current. Three commonly used antiepileptic agents were tested on an ASIC current activated by a pH drop from 7.4 to 6.0. […] Perfusion of lamotrigine (1 mM), however, inhibited the current by 43±13% (n=3, p<0.05, FIG. 15B), whereas perfusion of 1 mM felbamate reduced the amplitude of the ASIC current by nearly 60% (n=3. FIG. 15C).

[3] = test system: mouse hippocampal slices; test: Low Mg2+-induced epileptiform bursting activity (evoked and spontaneous) in hippocampal slices; conditions: 200 ng/mL PcTX1 venom or 20 nM synthetic PcTX1, absence of Mg2+
Description: Limbic seizures (Avoli et al., 2002) are modeled by removing Mg^2+ from artificial cerebral spinal fluid (aCSF) in slices of hippocampal-entorhinal cortex, which triggers interictal-like bursting activity, or spontaneous ictal-like events (Wong et al., 2001; Anderson et al., 1986). In the presence of normal Mg^2+ (1.5 mM), stimulation of Schaffer collaterals induces single population spike or EPSP in the CA1 region of the hippocampus. […] Perfusion with Mg^2+-free aCSF for about 30 min evoked synchronous burst firing with the same stimulation intensity. In about, 30% of the slices, spontaneous clustered bursts developed in the absence of electrical stimulation. Bath perfusion of amiloride or PcTX1 for 10 min reduced the amplitude and frequency of evoked bursting activity (FIGS. 5A and 5B). Amiloride (100 μM) reduced the amplitude of the first and the second population spikes (from 1.2±0.2 mV to 0.5±0.2 mV and 0.6±0.03 mV to 0.2±0.05 mV, respectively (n=9: p<0.01, FIGS. 5A and 5B), and the number of population spikes (from 4.7±0.6 to 3.3±0.8, n=9, p<0.05)). Similarly, PcTX1 (200 ng/mL) attenuated the amplitude of the population spike (from 2.1±0.3 to 1.6±0.2 mV, n=9, p<0.05) and the number of spikes (from 4.2±0.6 to 3.0±0.6, p<0.05).
Preparation of hippocampal slices and brain slice recording. Hippocampal slices were obtained from 8- to 10-week-old mice. The protocol for brain-slice recording was approved by the Institutional Animal Care and Use Committee of Legacy Research. Animals were deeply anesthetized with isoflurane and decapitated. Brains were quickly removed and placed in ice-cold solution that contained: 125 mM sucrose, 2.5 mM KCl, 26 mM NaHCO3, 1.25 mM NaHPO4, 6.0 mM […], 0.5 mM CaCl2, and 10 mM glucose, and was saturated with 95% O2 and 5% CO2 (pH 7.4). Hippocamnpal slices were cut in 400 μm thickness in transverse plane with a vibratome (Leica VT 1000S) and placed in a slice holding chamber (BSC-PC Prechamber, Warner Instrument) and incubated in normal artificial cerebral spinal fluid (aCSF) that contained: 125 mM NaCl, 2.5 mM KCl, 26 mM NaHCO3, 1.25 mM […], 1.0 mM MgSO4, 2.0 mM CaCl2, and 10 mM glucose, and was saturated with 95% O2 and 5% CO2 (pH 7.4).
Following ˜60 min of incubation at room temperature, individual slices were transferred to a submerged slice chamber with a volume of 0.5 mL (Warner Instruments, Hamden, Conn.) and perfused with oxygenated aCSF (35° C.) at a rate of 3-4 mL/min. Recording electrodes were pulled from borosilicate glass and filled with aCSF. The population spike and the field excitatory postsynaptic potentials (fEPSP) were recorded in stratum pyramidale and striatum radiatum of hippocampal CA1 region, by stimulating Schaffer Collaterals.
For low Mg^2+ induced epileptic burst activity, Mg^2+-free aCSF was perfused to the slices for ˜30 min. For stimulus-train induced bursting discharges (STIB), each stimulation train consisted of 120 pulses at 60 Hz and each pulse was 100 μsec in duration (Stasheff et al., 1985). A 10-minute interval of non-stimulation was provided between successive trains of high frequency stimulation. Stimulation electrodes were located in striatum radiatum between CA1 and CA3 region. The population spikes were recorded from striatum pyramidale of the CA3 region.
Pharmacological and electrical bursting models. To induce epileptic burst discharges, Mg^2+-free aCSF was applied. Mg^2+-free aCSF was obtained by simply omitting MgSO4 from aCSF.

[4] = target: T2, ASICs (Mus musculus, UniProt Q6NXK8); test: Acid (pH 7.0/7.1)-induced membrane depolarization and neuronal firing, current-clamp recording; conditions: pH 7.0; amiloride 100 μM or synthetic PcTX1 20 nM
T2 construct: Primary neuronal cultures were prepared from embryonic Swiss mice at 15 to 16 days of gestation; endogenous in cells
T2 sequence (Q6NXK8 1-526): T1 sequence (Q6NXK8 1-526)
Description: Unlike ischemia, only moderate pH changes (e.g., ˜0.3 pH unit) are reported in brain parenchyma during seizures (Chesler et al., 1988: Chesler et al., 1992), although pH in the synaptic cleft may be much lower (Chesler et al., 1992; Wemmie et al., 2006). […] One possibility is that voltage-clamp recording has relatively low sensitivity to resolve small current in whole-cell configuration. To provide more evidence that the decreases of pHo to the level seen in epilepsy can indeed activate the ASICs and cause neuronal excitation, we have also used current-clamp recording to study changes of membrane depolarization and neuronal firing by small changes of pHo. Due to the large input resistance of most CNS neurons (e.g., ˜500 MΩ), even a small membrane current (e.g., 10-20 pA, which is difficult to resolve in voltage-clamp recording in general) can induce significant membrane depolarization in current-clamp conditions. Mouse cortical neurons were used for current-clamp recordings 14 days after the culture.
Cortical neuronal culture. Primary neuronal cultures were prepared from embryonic Swiss mice at 15 to 16 days of gestation according to our previously described techniques (Xiong et al., 2004). In brief, cerebral cortices from 10 to 12 embryos were dissected and incubated with 0.05% trypsin-EDTA for 10 min, dissociated by trituration with a fire-polished glass pipette, and plated on poly-L-ornithine-coated culture dishes at a density of 0.5×10^6 cells per dish. Neurons were cultured with Neurobasal medium supplemented with B27 (Invitrogen). The cultures were maintained at 37° C. in a humidified 5% CO2 atmosphere incubator and were used for experiments after 12-14 days.
Patch clamp techniques. Whole-cell voltage-clamp and current-clamp recordings were performed as described in our previous studies (Xiong et al., 2004). […] Whole-cell currents were recorded using Axopatch 200B amplifiers with pCLAMP software (Axon Instruments, CA, USA). […]

## CCN(c1nc(N)c(C(=O)N=C(N)N)nc1Cl)C(C)C [EIPA, 5-(N-ethyl-N-isopropyl)-amiloride]
[1]
  IC50: ~20 µM

## CCC1(C)CC(=O)NC1=O (stereo not shown) [ethosuximide]
[2]; 1 mM, bath application 5 min, pH drop from 7.4 to 6.0
  effect on amplitude of the ASIC current: did not affect

## NC(=O)OCC(COC(N)=O)c1ccccc1 [felbamate]
[2]; 1 mM, pH drop from 7.4 to 6.0
  inhibition of ASIC current amplitude: ~60%

## Nc1nnc(-c2cccc(Cl)c2Cl)c(N)n1 [lamotrigine]
[2]
  effect on desensitization of the ASIC current: enhances the desensitization
[2]; 1 mM, pH drop from 7.4 to 6.0
  inhibition of ASIC current amplitude: 43±13%

## synthetic PcTX1: chemically synthesized PcTX1 peptide, used at 20 nM
[3]
  effect on frequency of spontaneous clustered bursting activity: reduced the frequency
[4]
  effect on acid-induced neuronal excitation (membrane depolarization, firing rate): largely and significantly reduced
